Numbers after ± are expanded uncertainties.
Experiment: mn = molality of the nth substance listed, in mol/kg
Conditions: Liquid, Capillary tube (Ostwald / Ubbelohde) method

O=S(=O)([O-])[O-].[Li+].[Li+] [lithium sulfate] + O
viscosity (298.15 K, 100 kPa, m1 = 0.1): 0.939 ± 0.015 mPa·s
viscosity (298.15 K, 100 kPa, m1 = 0.28): 1.037 ± 0.017 mPa·s
viscosity (298.15 K, 100 kPa, m1 = 0.56): 1.195 ± 0.019 mPa·s
viscosity (298.15 K, 100 kPa, m1 = 0.885): 1.411 ± 0.023 mPa·s
viscosity (298.15 K, 10000 kPa, m1 = 0.56): 1.195 ± 0.019 mPa·s
viscosity (298.15 K, 20000 kPa, m1 = 0.56): 1.195 ± 0.019 mPa·s
viscosity (298.15 K, 30000 kPa, m1 = 0.56): 1.195 ± 0.019 mPa·s
viscosity (298.25 K, 10000 kPa, m1 = 0.28): 1.035 ± 0.017 mPa·s
viscosity (298.25 K, 20000 kPa, m1 = 0.28): 1.035 ± 0.017 mPa·s
viscosity (298.25 K, 30000 kPa, m1 = 0.28): 1.036 ± 0.017 mPa·s
viscosity (298.35 K, 10000 kPa, m1 = 0.1): 0.936 ± 0.015 mPa·s
viscosity (298.35 K, 20000 kPa, m1 = 0.1): 0.9361 ± 0.015 mPa·s
viscosity (298.35 K, 30000 kPa, m1 = 0.1): 0.9363 ± 0.015 mPa·s
viscosity (298.45 K, 10000 kPa, m1 = 0.885): 1.404 ± 0.023 mPa·s
viscosity (298.45 K, 20000 kPa, m1 = 0.885): 1.404 ± 0.023 mPa·s
viscosity (298.45 K, 30000 kPa, m1 = 0.885): 1.404 ± 0.023 mPa·s
viscosity (303.15 K, 100 kPa, m1 = 0.1): 0.862 ± 0.014 mPa·s
viscosity (303.15 K, 100 kPa, m1 = 0.28): 0.951 ± 0.015 mPa·s
viscosity (303.15 K, 100 kPa, m1 = 0.56): 1.096 ± 0.018 mPa·s
viscosity (303.15 K, 100 kPa, m1 = 0.885): 1.294 ± 0.021 mPa·s
viscosity (306.19 K, 10000 kPa, m1 = 0.56): 1.013 ± 0.016 mPa·s
viscosity (306.19 K, 20000 kPa, m1 = 0.56): 1.016 ± 0.016 mPa·s
viscosity (306.19 K, 30000 kPa, m1 = 0.56): 1.018 ± 0.016 mPa·s
viscosity (307.35 K, 10000 kPa, m1 = 0.885): 1.17 ± 0.019 mPa·s
viscosity (307.35 K, 20000 kPa, m1 = 0.885): 1.173 ± 0.019 mPa·s
viscosity (307.35 K, 30000 kPa, m1 = 0.885): 1.176 ± 0.019 mPa·s
viscosity (307.93 K, 10000 kPa, m1 = 0.28): 0.8517 ± 0.014 mPa·s
viscosity (307.93 K, 20000 kPa, m1 = 0.28): 0.8546 ± 0.014 mPa·s
viscosity (307.93 K, 30000 kPa, m1 = 0.28): 0.857 ± 0.014 mPa·s
viscosity (308.52 K, 10000 kPa, m1 = 0.1): 0.7647 ± 0.012 mPa·s
viscosity (308.52 K, 20000 kPa, m1 = 0.1): 0.7659 ± 0.012 mPa·s
viscosity (308.52 K, 30000 kPa, m1 = 0.1): 0.7682 ± 0.012 mPa·s
viscosity (311.24 K, 10000 kPa, m1 = 0.56): 0.9141 ± 0.015 mPa·s
viscosity (311.24 K, 20000 kPa, m1 = 0.56): 0.9168 ± 0.015 mPa·s
viscosity (311.24 K, 30000 kPa, m1 = 0.56): 0.9192 ± 0.015 mPa·s
viscosity (312.27 K, 10000 kPa, m1 = 0.28): 0.778 ± 0.013 mPa·s
viscosity (312.27 K, 20000 kPa, m1 = 0.28): 0.7812 ± 0.013 mPa·s
viscosity (312.27 K, 30000 kPa, m1 = 0.28): 0.784 ± 0.013 mPa·s
viscosity (313.15 K, 100 kPa, m1 = 0.1): 0.707 ± 0.011 mPa·s
viscosity (313.15 K, 100 kPa, m1 = 0.28): 0.778 ± 0.013 mPa·s
viscosity (313.15 K, 100 kPa, m1 = 0.56): 0.891 ± 0.014 mPa·s
viscosity (313.15 K, 100 kPa, m1 = 0.885): 1.054 ± 0.017 mPa·s
viscosity (313.67 K, 10000 kPa, m1 = 0.1): 0.6899 ± 0.011 mPa·s
viscosity (313.67 K, 20000 kPa, m1 = 0.1): 0.6927 ± 0.011 mPa·s
viscosity (313.67 K, 30000 kPa, m1 = 0.1): 0.6955 ± 0.011 mPa·s
viscosity (314.12 K, 10000 kPa, m1 = 0.885): 1.016 ± 0.016 mPa·s
viscosity (314.12 K, 20000 kPa, m1 = 0.885): 1.019 ± 0.016 mPa·s
viscosity (314.12 K, 30000 kPa, m1 = 0.885): 1.023 ± 0.017 mPa·s
viscosity (321.55 K, 10000 kPa, m1 = 0.28): 0.6508 ± 0.01 mPa·s
viscosity (321.55 K, 20000 kPa, m1 = 0.28): 0.6539 ± 0.011 mPa·s
viscosity (321.55 K, 30000 kPa, m1 = 0.28): 0.6569 ± 0.011 mPa·s
viscosity (322.35 K, 10000 kPa, m1 = 0.56): 0.7352 ± 0.012 mPa·s
viscosity (322.35 K, 20000 kPa, m1 = 0.56): 0.7388 ± 0.012 mPa·s
viscosity (322.35 K, 30000 kPa, m1 = 0.56): 0.7422 ± 0.012 mPa·s
viscosity (322.55 K, 10000 kPa, m1 = 0.885): 0.8649 ± 0.014 mPa·s
viscosity (322.55 K, 20000 kPa, m1 = 0.885): 0.8691 ± 0.014 mPa·s
viscosity (322.55 K, 30000 kPa, m1 = 0.885): 0.8731 ± 0.014 mPa·s
viscosity (323.15 K, 100 kPa, m1 = 0.1): 0.578 ± 0.0094 mPa·s
viscosity (323.15 K, 100 kPa, m1 = 0.28): 0.63 ± 0.01 mPa·s
viscosity (323.15 K, 100 kPa, m1 = 0.56): 0.722 ± 0.012 mPa·s
viscosity (323.15 K, 100 kPa, m1 = 0.885): 0.853 ± 0.014 mPa·s
viscosity (324.55 K, 10000 kPa, m1 = 0.1): 0.566 ± 0.0092 mPa·s
viscosity (324.55 K, 20000 kPa, m1 = 0.1): 0.5689 ± 0.0092 mPa·s
viscosity (324.55 K, 30000 kPa, m1 = 0.1): 0.5716 ± 0.0093 mPa·s
viscosity (329.44 K, 10000 kPa, m1 = 0.28): 0.567 ± 0.0092 mPa·s
viscosity (329.44 K, 20000 kPa, m1 = 0.28): 0.57 ± 0.0093 mPa·s
viscosity (329.44 K, 30000 kPa, m1 = 0.28): 0.5731 ± 0.0093 mPa·s
viscosity (330.24 K, 10000 kPa, m1 = 0.885): 0.7558 ± 0.012 mPa·s
viscosity (330.24 K, 20000 kPa, m1 = 0.885): 0.7598 ± 0.012 mPa·s
viscosity (330.24 K, 30000 kPa, m1 = 0.885): 0.7639 ± 0.012 mPa·s
viscosity (331.27 K, 10000 kPa, m1 = 0.56): 0.6319 ± 0.01 mPa·s
viscosity (331.27 K, 20000 kPa, m1 = 0.56): 0.6354 ± 0.01 mPa·s
viscosity (331.27 K, 30000 kPa, m1 = 0.56): 0.6372 ± 0.01 mPa·s
viscosity (331.86 K, 10000 kPa, m1 = 0.1): 0.5013 ± 0.0082 mPa·s
viscosity (331.86 K, 20000 kPa, m1 = 0.1): 0.5035 ± 0.0082 mPa·s
viscosity (331.86 K, 30000 kPa, m1 = 0.1): 0.5061 ± 0.0082 mPa·s
viscosity (333.15 K, 100 kPa, m1 = 0.1): 0.49 ± 0.008 mPa·s
viscosity (333.15 K, 100 kPa, m1 = 0.28): 0.532 ± 0.0087 mPa·s
viscosity (333.15 K, 100 kPa, m1 = 0.56): 0.61 ± 0.0099 mPa·s
viscosity (333.15 K, 100 kPa, m1 = 0.885): 0.718 ± 0.012 mPa·s
viscosity (338.71 K, 10000 kPa, m1 = 0.28): 0.4914 ± 0.008 mPa·s
viscosity (338.71 K, 20000 kPa, m1 = 0.28): 0.4942 ± 0.0081 mPa·s
viscosity (338.71 K, 30000 kPa, m1 = 0.28): 0.4979 ± 0.0081 mPa·s
viscosity (339.74 K, 10000 kPa, m1 = 0.1): 0.4463 ± 0.0073 mPa·s
viscosity (339.74 K, 20000 kPa, m1 = 0.1): 0.4491 ± 0.0073 mPa·s
viscosity (339.74 K, 30000 kPa, m1 = 0.1): 0.452 ± 0.0074 mPa·s
viscosity (340.72 K, 10000 kPa, m1 = 0.885): 0.6414 ± 0.01 mPa·s
viscosity (340.72 K, 20000 kPa, m1 = 0.885): 0.6452 ± 0.01 mPa·s
viscosity (340.72 K, 30000 kPa, m1 = 0.885): 0.6494 ± 0.011 mPa·s
viscosity (340.73 K, 10000 kPa, m1 = 0.56): 0.5456 ± 0.0089 mPa·s
viscosity (340.73 K, 20000 kPa, m1 = 0.56): 0.5484 ± 0.0089 mPa·s
viscosity (340.73 K, 30000 kPa, m1 = 0.56): 0.5514 ± 0.009 mPa·s
viscosity (343.15 K, 100 kPa, m1 = 0.1): 0.429 ± 0.007 mPa·s
viscosity (343.15 K, 100 kPa, m1 = 0.28): 0.462 ± 0.0076 mPa·s
viscosity (343.15 K, 100 kPa, m1 = 0.56): 0.53 ± 0.0086 mPa·s
viscosity (343.15 K, 100 kPa, m1 = 0.885): 0.624 ± 0.01 mPa·s
viscosity (343.35 K, 10000 kPa, m1 = 0.28): 0.4594 ± 0.0075 mPa·s
viscosity (343.35 K, 20000 kPa, m1 = 0.28): 0.4623 ± 0.0076 mPa·s
viscosity (343.35 K, 30000 kPa, m1 = 0.28): 0.4653 ± 0.0076 mPa·s

— the NIST ThermoML archive (doi:10.1021/je030177j)
